These results are taken from patent publication US20220119866A1 (priority 2019, published 2022).

Read-outs that look alike come from different tables or passages of the source.

The subject of test [1] is Clostridium difficile hypervirulent ribotype 027 (RT027) strains. The experiment in a line: drug sensitivity test, resistance rate of 269 RT027 strains. Type of test: cell-based. The note with it: for Resistance rate to Category 1 (56 strains) / Resistance rate to Category 2 (23 strains) / Resistance rate to Category 3 (190 strains): 269 RT027 strains; for Resistance rate to Category 2 (23 strains): Category 2 (sensitive branch); for Average resistance rate: all 269 RT027 strains.

Test [2] concerns Clostridium difficile clade2 strains. The test is classed as cell-based. The note with it: for Resistance rate to Category 1 (70 strains) / Resistance rate to Category 2 (96 strains) / Resistance rate to Category 3 (217 strains): 383 clade2 strains; for Average resistance rate: all 383 clade2 strains.

Turning to `Cc1ncc([N+](=O)[O-])n1CCO` [Metronidazole, metronidazole], in test [1], the “Resistance rate to Category 1 (56 strains)” value was determined as 51.79%, the “Resistance rate to Category 2 (23 strains)” value is reported as 0.0%, the “Resistance rate to Category 3 (190 strains)” value came out at 47.37% and the Average resistance rate came out at 44.24%. For the same compound, the “Resistance rate to Category 2 (23 strains)” value in test [1] (listed as metronidazole) stood at 0.0%. For the same compound, in test [2], the “Resistance rate to Category 1 (70 strains)” value was 52.86%, the “Resistance rate to Category 2 (96 strains)” value is given as 3.13%, the “Resistance rate to Category 3 (217 strains)” value is reported as 48.39% and the Average resistance rate stood at 37.86%. Further, the “Resistance rate to Category 2 (96 strains)” value in test [2] (listed as metronidazole) amounted to 3.03%.

Turning to `CN[C@H](CC(C)C)C(=O)N[C@H]1C(=O)N[C@@H](CC(N)=O)C(=O)N[C@H]2C(=O)N[C@H]3C(=O)N[C@H](C(=O)N[C@H](C(=O)O)c4cc(O)cc(O)c4-c4cc3ccc4O)[C@H](O)c3ccc(c(Cl)c3)Oc3cc2cc(c3O[C@@H]2O[C@H](CO)[C@@H](O)[C@H](O)[C@H]2O[C@H]2C[C@](C)(N)[C@H](O)[C@H](C)O2)Oc2ccc(cc2Cl)[C@H]1O` [Vancomycin, vancomycin], in test [1], the “Resistance rate to Category 1 (56 strains)” value is 94.64%, the “Resistance rate to Category 2 (23 strains)” value is given as 21.74%, the “Resistance rate to Category 3 (190 strains)” value came to 21.05% and the Average resistance rate is listed as 36.43%. Further, in test [1] (listed as vancomycin), the “Resistance rate to Category 2 (23 strains)” value amounted to 21.74% and the “Resistance rate to Category 3 (190 strains)” value is reported as 21.05%. Besides, in test [2], the “Resistance rate to Category 1 (70 strains)” value amounted to 92.86%, the “Resistance rate to Category 2 (96 strains)” value came out at 30.21%, the “Resistance rate to Category 3 (217 strains)” value turned out to be 22.58% and the Average resistance rate was 37.34%. In test [2] (listed as vancomycin), the “Resistance rate to Category 2 (96 strains)” value is recorded as 30.21% and the “Resistance rate to Category 3 (217 strains)” value came out at 22.58%.
